This is an account of results in patent US20240092759A1, “Non-Covalent Inhibitors of the Main Protease of SARS-CoV-2 and Methods of Use” (YALE UNIVERSITY, priority 2021, published 2024).

One series deals with SARS-CoV-2 replicon. In words: microbe, parasite or virus in culture. The following applies: for IC50: Severe acute respiratory syndrome coronavirus 2, dose-response curves of FIGS. 6A-6B, read-out: IC50, replicon assay, compound alone. It is filed as cell-based. Background: In antiviral work, replicon cells carry a viral genome segment that copies itself.
The test system of series [1] is infectious SARS-CoV-2 (isolate USA-WA1/2020). Briefly: Antiviral assay, cytopathic effect by MTT in Vero E6 cells. Type of series: cell-based. As to conditions: for EC50: Severe acute respiratory syndrome coronavirus 2, Vero C1008. (In general: Protection from cytopathic effect is a common read-out in antiviral testing.)
For series [2] the test system is unchanged. Briefly: microbe, parasite or virus in culture. It is filed as cell-based. The following applies: for EC50: Severe acute respiratory syndrome coronavirus 2, Vero C1008, Vero E6 cells, read-out: EC50 Plaque.
Another series relates to Vero E6 cells. Briefly: Cellular cytotoxicity by MTT in Vero E6 cells. As to conditions: for cytotoxicity: Vero E6 and NHBE cells; for CC50: read-out: CC50 Vero E6, absence of virus.
In series [3] the test system is normal human bronchial epithelial cells (NHBE). Briefly: Cellular cytotoxicity by MTT in normal human bronchial epithelial cells. As to conditions: for CC50: read-out: CC50 NHBE, MTT.
The target of series [4] is recombinant SARS-Cov-2 M^pro (Severe acute respiratory syndrome coronavirus 2 (2019-nCoV) (SARS-CoV-2), UniProt P0DTD1). In words: biochemical.
[5] abbreviates: Vero E6 cells, MOI 0.01, 72 h, NA = not active, read-out: EC50 MTT.
[6] abbreviates: combination with remdesivir, MacSynergy II.
Where [7] appears, read: footnote b: drop in viral titer/incomplete inhibition.
Setting [8] is: read-out: IC50 (μM), inhibition of SARS-Cov-2 M^pro, Table 4.

Read-outs that look alike come from different tables or passages of the source.

The IC50 is the concentration at which inhibition is half-maximal. In the case of `O=c1nc(NO)ccn1[C@@H]1O[C@H](CO)C(O)[C@@H]1O` (some centres unmarked) [EIDD-1931, reference compound], the IC50 in the series with SARS-CoV-2 replicon was 2.23 µM.

One may read the EC50 as the midpoint of the concentration-response curve. As usually defined, the CC50 is the concentration that lowers cell viability or growth by half. Consider `O=c1[nH]cc(-c2cc(-c3cc(Cl)c(F)c(OCc4ccccc4Cl)c3)c(=O)n(-c3cccnc3)c2)c(=O)[nH]1` [Compound 44, 5-(3-(3-Chloro-5-((2-chlorobenzyl)oxy)-4-fluorophenyl)-2-oxo-2H-[1,3′-bipyridin]-5-yl)pyrimidine-2,4(1H,3H)-dione], for which, in series [1], the “antiviral activity in the MTT assay” value was “lacked antiviral activity”. In addition, the “antiviral activity in the viral plaque assay” value in series [2] is “showed activity”. For the same compound, the EC50 in series [2] (MOI 0.01) amounted to 0.84 µM. In the series on Vero E6 cells, the “cytotoxicity” value is listed as “greatest cytotoxicity” and the CC50 was determined as 1.15 ± 0.5 µM. Also, in series [3], the CC50 worked out at 3.5 ± 1 µM.

Take `CCCOc1cc(Cl)cc(-c2cc(-c3ccccc3C#N)cn(-c3cccnc3)c2=O)c1` [Compound 13, 2-(3-(3-Chloro-5-propoxyphenyl)-2-oxo-2H-[1,3′-bipyridin]-5-yl)benzonitrile]: the “factor of improvement in potency over 9” value in series [4] (ratio of IC50 values) is “ca. 30”. Also, the EC50 was determined as 2.5 ± 0.7 µM in series [1] (setting [5]) and 2.5 µM in series [1] (read-out: EC50, MTT assay). In addition, the “combination behavior” value in the series on SARS-CoV-2 replicon (combination with remdesivir) is “statistically significant synergistic behavior”. Moreover, the antagonism volume in the series on SARS-CoV-2 replicon (setting [6]) is on record as 0 μM^2%. Also, the mean synergy volume in the series on SARS-CoV-2 replicon (setting [6]) is on record as 30.8 μM^2%. Besides, the CC50 worked out at 22 µM in the series with Vero E6 cells and 20 ± 2 µM in series [3].

Consider `O=c1[nH]cc(-c2cc(-c3cc(Cl)cc(OCc4ccccc4)c3)c(=O)n(-c3cccnc3)c2)c(=O)[nH]1` [Compound 46, 5-(3-(3-(Benzyloxy)-5-chlorophenyl)-2-oxo-2H-[1,3′-bipyridin]-5-yl)pyrimidine-2,4(1H,3H)-dione], for which the “antiviral activity in the viral plaque assay” value in series [2] is given as “antiviral activity was found”. For the same compound, the EC50 in series [2] (setting [7]) amounted to 3.2 µM. The CC50 is 12.3 ± 7 µM in the series with Vero E6 cells and 17.5 ± 5.5 µM in series [3].

With `O=c1[nH]cc(-c2cc(-c3cc(Cl)cc(OCc4ccccc4Cl)c3)c(=O)n(-c3cccnc3)c2)c(=O)[nH]1` [Compound 37, 5-(3-(3-Chloro-5-((2-chlorobenzyl)oxy)phenyl)-2-oxo-2H-[1,3′-bipyridin]-5-yl)pyrimidine-2,4(1H,3H)-dione], the “antiviral activity in the MTT assay” value in series [1] is reported as “lacked antiviral activity”. Besides, the “antiviral activity in the viral plaque assay” value in series [2] is on record as “showed activity”. The EC50 in series [2] (setting [7]) stood at 11.3 µM. In the series with Vero E6 cells, the “cytotoxicity” value is reported as “greatest cytotoxicity” and the CC50 is 1.7 ± 0.9 µM. For the same compound, in series [3], the CC50 is 2 ± 0.1 µM.

Take `N#Cc1ccccc1-c1cc(-c2cc(Cl)cc(OCCC(F)(F)F)c2)c(=O)n(-c2cccnc2)c1` [Compound 47, 2-(3-(3-Chloro-5-(3,3,3-trifluoropropoxy)phenyl)-2-oxo-2H-[1,3′-bipyridin]-5-yl)benzonitrile]: the CC50 turned out to be 22 ± 8 µM with Vero E6 cells and 25 ± 5 µM in series [3]. Besides, in series [3] (compared with 39), the “cytotoxicity towards the NHBE cells” value is “more cytotoxic”.

`N#Cc1ccccc1-c1cc(-c2cc(Cl)cc(OCC3CC3)c2)c(=O)n(-c2cccnc2)c1` [Compound 39, 2-(3-(3-Chloro-5-(cyclopropylmethoxy)phenyl)-2-oxo-2H-[1,3′-bipyridin]-5-yl)benzonitrile]: the EC50 in series [1] (setting [5]) was 2 ± 0.7 µM; in series [1] (read-out: EC50, MTT assay) it was roughly 1 µM. In addition, the “cytotoxicity” value in the series on Vero E6 cells is recorded as “no cytotoxicity to the highest concentration tested (100 μM)”. The CC50 (with Vero E6 cells; in series [3]) was greater than 100 µM in each case.

For `COCCOc1cc(Cl)cc(-c2cc(-c3ccccc3C#N)cn(-c3cccnc3)c2=O)c1` [Compound 16, 2-(3-(3-Chloro-5-(2-methoxyethoxy)phenyl)-2-oxo-2H-[1,3′-bipyridin]-5-yl)benzonitrile], the IC50 in series [4] (read-out: IC50 (μM), inhibition of SARS-CoV-2 M^pro, Table 1, 100 nM M^pro, triplicate, perampanel: fluorescence of compound interfered with assay) is 0.47 ± 0.02 µM; in series [4] (setting [8]) it was 0.47 ± 0.02 µM.

In the case of `CCC(CC)COC(=O)[C@H](C)N[P@](=O)(OC[C@H]1O[C@@](C#N)(c2ccc3c(N)ncnn23)[C@H](O)[C@@H]1O)Oc1ccccc1` [remdesivir, reference compound], the CC50 came out at 72 ± 28 µM in the series with Vero E6 cells and 41 ± 2 µM in series [3].

For the compound `N#Cc1ccccc1-c1cc(-c2cc(Cl)cc(Cl)c2)c(=O)n(-c2cccnc2)c1` [Compound 9, 2-(3-(3,5-Dichlorophenyl)-2-oxo-2H-[1,3′-bipyridin]-5-yl)benzonitrile], the IC50 in series [4] (IC50) amounted to 4.2 µM; in series [4] (setting [8]), 4.02 ± 1.36 µM; in the series on SARS-CoV-2 replicon it was 0.0938 µM. In the series on SARS-CoV-2 replicon (combination with EIDD-1931), the “combination behavior” value is recorded as “synergistic effect”.
